In ChEMBL document CHEMBL1201862, “PubChem BioAssay data set” (2004):
Calls of active or inactive are those of the source.

Assays:
[1] = inhibitors of clade B AD8 Env fusion, dose response, cell-based, cherry-pick (AID 652062); assay type: functional;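 also: luciferase signal from cell-cell fusion driven by HIV-1 clade B AD8 Env; potency is for inhibitors of fusion seen as a drop in luminescence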
[2] = off-target signal loss in HeLa-CEM21 co-culture – HeLa F-luc CTL cells, cherry-picked, counter-screen for HIV-1 Env fusion inhibitor project, dose response (AID 652040); assay type: functional, cell-based;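 also: potency for signal decrease marking cytotoxic or nonspecific inhibition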
[3] = inhibitors of HIV Env-driven cell fusion, dose response, cherry-pick (AID 652057); assay type: functional, cell-based
[4] = ZM109 Env clade C HIV-1 fusion inhibitors, dose response, HeLa effector, CEM target cells, luciferase, cherry-pick (AID 652058); assay type: functional, cell-based
[5] = target: T1, Cysteine protease ATG4B (Homo sapiens, UniProt Q9Y4P1); assay type: functional;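 also: Fluorescence-based dose-response confirmation assay measuring inhibition of ATG4B activity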
T1 sequence (Q9Y4P1 whole entry): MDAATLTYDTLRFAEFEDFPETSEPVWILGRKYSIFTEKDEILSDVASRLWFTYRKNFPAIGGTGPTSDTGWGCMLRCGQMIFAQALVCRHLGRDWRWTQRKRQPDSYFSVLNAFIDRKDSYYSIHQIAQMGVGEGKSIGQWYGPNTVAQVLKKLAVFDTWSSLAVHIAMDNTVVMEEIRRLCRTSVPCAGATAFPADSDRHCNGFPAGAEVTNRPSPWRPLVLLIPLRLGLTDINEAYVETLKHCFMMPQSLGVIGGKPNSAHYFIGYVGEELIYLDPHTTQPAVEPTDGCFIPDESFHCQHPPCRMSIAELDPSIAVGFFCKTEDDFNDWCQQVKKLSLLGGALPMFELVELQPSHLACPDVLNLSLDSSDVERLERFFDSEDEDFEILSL

[6] = target: Phospholipase A2 (Homo sapiens, UniProt P04054); assay type: functional;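 also: confirmatory dose-response counterscreen on phospholipase A2, testing hits that came from an ultra-high-throughput screen for ATG4B inhibitors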
[7] = ADAM10 protease inhibitors, dose response, selectivity assay for ADAM17 exosite inhibitor project, biochemical, FRET peptide substrate, recombinant human ADAM10 (AID 743259);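 also: ADAM10 enzyme cleaving a FRET peptide substrate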
[8] = target: Disintegrin and metalloproteinase domain-containing protein 17 (Homo sapiens, UniProt P78536); test: exosite inhibitors of ADAM17, dose response, biochemical (AID 743260)
[9] = target: T2, Low molecular weight phosphotyrosine protein phosphatase (Homo sapiens, UniProt P24666); assay type: functional; conditions: read-out: IC50_Mean;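 also: Dose-response confirmation assay measuring inhibition of LMPTP enzyme activity by fluorescence intensity read-out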
T2 sequence (P24666 whole entry): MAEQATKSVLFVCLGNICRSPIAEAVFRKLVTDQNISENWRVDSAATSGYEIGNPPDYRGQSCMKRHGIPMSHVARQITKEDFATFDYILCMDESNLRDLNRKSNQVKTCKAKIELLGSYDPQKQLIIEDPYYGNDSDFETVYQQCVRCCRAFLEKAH

[10] = target: T3, Mitochondrial peptide methionine sulfoxide reductase (Bos taurus, UniProt P54149); test: Absorbance-based biochemical high throughput dose response assay for activators of Methionine sulfoxide reductase A (MsrA).; assay type: functional
T3 sequence (P54149 whole entry): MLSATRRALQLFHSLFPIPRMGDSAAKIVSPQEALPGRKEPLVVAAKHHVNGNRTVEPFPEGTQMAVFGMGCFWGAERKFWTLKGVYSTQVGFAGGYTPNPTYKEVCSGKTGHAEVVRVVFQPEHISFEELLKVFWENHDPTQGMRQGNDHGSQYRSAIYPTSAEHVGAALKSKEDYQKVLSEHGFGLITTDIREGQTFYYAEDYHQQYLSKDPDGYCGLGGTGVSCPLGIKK

[11] = target: T4, Long-chain-fatty-acid--AMP ligase FadD28 (Mycobacterium tuberculosis, UniProt P9WQ59); test: Fluorescence polarization aasay to screen for inhibitors that compete for the binding of FadD28 to a bisubstrate Measured in Biochemical System Using Plate Reader - 2147-01_Inhibitor_Dose_CherryPick_Activity.; assay type: functional, Mycobacterium tuberculosis H37Rv
T4 sequence (P9WQ59 whole entry): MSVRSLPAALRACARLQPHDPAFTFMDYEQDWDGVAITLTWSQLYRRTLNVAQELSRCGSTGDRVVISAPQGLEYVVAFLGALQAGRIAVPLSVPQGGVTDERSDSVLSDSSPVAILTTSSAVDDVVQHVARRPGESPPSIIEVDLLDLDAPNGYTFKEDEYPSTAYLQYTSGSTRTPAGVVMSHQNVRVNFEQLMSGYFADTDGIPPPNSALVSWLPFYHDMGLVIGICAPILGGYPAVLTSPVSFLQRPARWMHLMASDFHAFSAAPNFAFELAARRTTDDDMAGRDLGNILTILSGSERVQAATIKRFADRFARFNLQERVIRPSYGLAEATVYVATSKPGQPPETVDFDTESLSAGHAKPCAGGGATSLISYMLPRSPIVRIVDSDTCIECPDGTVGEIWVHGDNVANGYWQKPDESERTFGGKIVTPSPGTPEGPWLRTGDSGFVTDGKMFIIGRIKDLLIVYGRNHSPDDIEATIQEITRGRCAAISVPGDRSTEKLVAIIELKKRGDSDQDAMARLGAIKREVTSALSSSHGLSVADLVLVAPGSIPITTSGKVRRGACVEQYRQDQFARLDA

[12] = cells; assay type: functional, cell-based; conditions: HEK-CNG
[13] = control 3'UTR Renilla luciferase suppression, dose response, counter-screen for Shn3 inhibitor project, cell-based, Clone20-Shn3RL, cherry-picked (AID 624133); assay type: functional
[14] = target: T5, Galanin receptor type 3 (Homo sapiens, UniProt O60755); test: Fluorescence-based cell-based primary high throughput dose response assay to identify antagonists of the Galanin Receptor 3 (GalR3).; assay type: functional
T5 sequence (O60755 whole entry): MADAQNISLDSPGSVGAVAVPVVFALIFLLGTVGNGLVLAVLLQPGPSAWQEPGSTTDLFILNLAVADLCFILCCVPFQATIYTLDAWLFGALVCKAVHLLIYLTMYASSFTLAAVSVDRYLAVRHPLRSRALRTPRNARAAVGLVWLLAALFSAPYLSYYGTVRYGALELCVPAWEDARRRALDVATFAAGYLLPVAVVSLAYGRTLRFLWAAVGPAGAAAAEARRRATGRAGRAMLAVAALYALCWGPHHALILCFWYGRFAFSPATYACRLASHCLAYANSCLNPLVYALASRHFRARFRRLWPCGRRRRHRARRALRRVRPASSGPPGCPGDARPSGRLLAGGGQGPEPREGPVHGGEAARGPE

[15] = Shn3 3'UTR reporter inhibitors, dose response, cell-based, Clone20 osteoblasts, firefly luciferase, cherry-picked (AID 624132); assay type: functional;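 also: firefly luciferase luminescence from reporter carrying the Shn3 3'UTR in osteoblasts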
[16] = HepG2 cell cytotoxicity, dose response, cytotoxicity control for Shn3 inhibitor project, CellTiter-Glo, cherry-picked (AID 624134); assay type: functional, cell-based
[17] = system: INS1; test: beta cell apoptosis inhibitors, cytokine rescue, dose response, luminescence, retest (AID 449756); assay type: functional, cell-based; conditions: Rattus norvegicus;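 also: cell death triggered by IL-1 beta plus TNF-alpha plus IFN-gamma mixture; protective hits raise ATP signal compared with cytokine alone wells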
[18] = target: Voltage-dependent T-type calcium channel subunit alpha-1H (Homo sapiens, UniProt O95180); assay type: functional;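 also: channel activity triggered by adding a high calcium stimulation buffer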
[19] = target: T6, Fatty acid synthase (Homo sapiens, UniProt P49327); test: FAS thioesterase domain inhibitors, dose response, biochemical, endpoint fluorescence intensity, uHTS hits (AID 624327); assay type: functional;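 also: fluorescence from hydrolysis of an O-methyl fluorescein acyl ester substrate by the enzyme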
[20] = target: T6, Fatty acid synthase; test: FAS thioesterase domain inhibitors, dose response, biochemical, kinetic fluorescence intensity (AID 624326); assay type: functional;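 also: rate of fluorescence rise from hydrolysis of a fluorogenic O-methyl fluorescein ester substrate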

Chain of Phospholipase A2 (P04054 whole entry): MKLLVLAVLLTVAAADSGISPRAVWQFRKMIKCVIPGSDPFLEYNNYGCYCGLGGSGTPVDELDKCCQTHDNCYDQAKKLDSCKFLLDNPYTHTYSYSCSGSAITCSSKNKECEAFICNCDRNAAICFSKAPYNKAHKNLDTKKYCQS
T6 sequence (P49327 whole entry, the tested form may be a part): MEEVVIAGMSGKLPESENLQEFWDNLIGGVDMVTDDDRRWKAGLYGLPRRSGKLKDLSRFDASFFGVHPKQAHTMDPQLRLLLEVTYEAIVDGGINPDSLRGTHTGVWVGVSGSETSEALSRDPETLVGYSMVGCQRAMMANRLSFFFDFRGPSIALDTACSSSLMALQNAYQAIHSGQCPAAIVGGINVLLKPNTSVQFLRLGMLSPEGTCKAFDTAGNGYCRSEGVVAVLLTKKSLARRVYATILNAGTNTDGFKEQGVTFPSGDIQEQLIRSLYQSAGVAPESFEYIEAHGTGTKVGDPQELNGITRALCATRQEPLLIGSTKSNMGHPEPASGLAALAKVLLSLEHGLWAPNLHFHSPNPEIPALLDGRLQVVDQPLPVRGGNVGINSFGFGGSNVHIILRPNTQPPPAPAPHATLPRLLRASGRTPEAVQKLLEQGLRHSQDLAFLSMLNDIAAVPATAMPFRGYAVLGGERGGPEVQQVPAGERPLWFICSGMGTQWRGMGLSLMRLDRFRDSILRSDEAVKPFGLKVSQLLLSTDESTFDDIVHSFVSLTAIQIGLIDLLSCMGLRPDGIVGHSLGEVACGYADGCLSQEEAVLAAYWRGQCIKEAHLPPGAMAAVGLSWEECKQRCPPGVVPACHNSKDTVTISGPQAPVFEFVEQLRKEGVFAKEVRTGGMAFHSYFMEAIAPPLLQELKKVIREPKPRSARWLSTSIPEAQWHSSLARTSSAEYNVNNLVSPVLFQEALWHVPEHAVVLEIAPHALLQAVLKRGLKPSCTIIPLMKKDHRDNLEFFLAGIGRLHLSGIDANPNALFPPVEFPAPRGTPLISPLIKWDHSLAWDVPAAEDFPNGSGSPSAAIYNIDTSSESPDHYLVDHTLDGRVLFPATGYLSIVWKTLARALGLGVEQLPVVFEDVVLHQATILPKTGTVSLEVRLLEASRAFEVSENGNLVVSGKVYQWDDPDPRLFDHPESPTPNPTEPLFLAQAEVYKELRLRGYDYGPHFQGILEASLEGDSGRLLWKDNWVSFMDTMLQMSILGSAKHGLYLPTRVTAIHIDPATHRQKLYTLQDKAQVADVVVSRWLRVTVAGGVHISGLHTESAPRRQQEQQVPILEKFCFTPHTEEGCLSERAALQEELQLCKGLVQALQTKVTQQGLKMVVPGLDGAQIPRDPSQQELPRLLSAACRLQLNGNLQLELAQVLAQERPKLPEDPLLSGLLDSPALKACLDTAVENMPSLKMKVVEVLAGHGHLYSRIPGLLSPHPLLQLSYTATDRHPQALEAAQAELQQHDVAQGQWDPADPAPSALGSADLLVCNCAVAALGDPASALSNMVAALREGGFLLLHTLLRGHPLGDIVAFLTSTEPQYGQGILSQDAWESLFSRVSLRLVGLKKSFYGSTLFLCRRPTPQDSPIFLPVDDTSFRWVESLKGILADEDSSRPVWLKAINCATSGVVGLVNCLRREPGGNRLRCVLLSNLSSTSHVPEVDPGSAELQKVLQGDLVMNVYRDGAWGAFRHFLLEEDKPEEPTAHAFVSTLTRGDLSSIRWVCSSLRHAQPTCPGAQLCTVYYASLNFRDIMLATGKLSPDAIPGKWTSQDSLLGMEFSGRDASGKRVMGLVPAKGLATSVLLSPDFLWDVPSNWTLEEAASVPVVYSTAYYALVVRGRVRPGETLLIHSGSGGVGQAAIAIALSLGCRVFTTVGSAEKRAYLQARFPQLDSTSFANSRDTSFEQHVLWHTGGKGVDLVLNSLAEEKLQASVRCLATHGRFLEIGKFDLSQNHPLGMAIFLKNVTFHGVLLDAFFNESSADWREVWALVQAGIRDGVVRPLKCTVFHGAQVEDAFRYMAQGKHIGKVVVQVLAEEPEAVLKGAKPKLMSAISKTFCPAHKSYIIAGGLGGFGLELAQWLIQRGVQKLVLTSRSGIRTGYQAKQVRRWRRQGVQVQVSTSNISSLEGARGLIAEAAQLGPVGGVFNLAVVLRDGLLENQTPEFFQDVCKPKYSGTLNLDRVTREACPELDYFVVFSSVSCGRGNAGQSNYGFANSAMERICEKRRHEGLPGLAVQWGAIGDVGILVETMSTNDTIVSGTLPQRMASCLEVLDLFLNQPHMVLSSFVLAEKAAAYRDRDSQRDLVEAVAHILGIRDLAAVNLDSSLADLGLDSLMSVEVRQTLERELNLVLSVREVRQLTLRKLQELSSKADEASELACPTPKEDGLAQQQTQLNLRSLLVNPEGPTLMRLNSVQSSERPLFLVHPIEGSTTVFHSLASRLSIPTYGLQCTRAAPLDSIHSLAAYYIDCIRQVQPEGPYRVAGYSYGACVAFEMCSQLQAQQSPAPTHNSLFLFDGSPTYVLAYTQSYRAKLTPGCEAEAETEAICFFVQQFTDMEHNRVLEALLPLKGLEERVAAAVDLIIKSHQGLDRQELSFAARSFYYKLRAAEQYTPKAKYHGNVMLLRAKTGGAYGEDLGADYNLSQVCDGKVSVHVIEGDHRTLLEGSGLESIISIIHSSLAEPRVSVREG
Chain of Voltage-dependent T-type calcium channel subunit alpha-1H (O95180 whole entry, the tested form may be a part): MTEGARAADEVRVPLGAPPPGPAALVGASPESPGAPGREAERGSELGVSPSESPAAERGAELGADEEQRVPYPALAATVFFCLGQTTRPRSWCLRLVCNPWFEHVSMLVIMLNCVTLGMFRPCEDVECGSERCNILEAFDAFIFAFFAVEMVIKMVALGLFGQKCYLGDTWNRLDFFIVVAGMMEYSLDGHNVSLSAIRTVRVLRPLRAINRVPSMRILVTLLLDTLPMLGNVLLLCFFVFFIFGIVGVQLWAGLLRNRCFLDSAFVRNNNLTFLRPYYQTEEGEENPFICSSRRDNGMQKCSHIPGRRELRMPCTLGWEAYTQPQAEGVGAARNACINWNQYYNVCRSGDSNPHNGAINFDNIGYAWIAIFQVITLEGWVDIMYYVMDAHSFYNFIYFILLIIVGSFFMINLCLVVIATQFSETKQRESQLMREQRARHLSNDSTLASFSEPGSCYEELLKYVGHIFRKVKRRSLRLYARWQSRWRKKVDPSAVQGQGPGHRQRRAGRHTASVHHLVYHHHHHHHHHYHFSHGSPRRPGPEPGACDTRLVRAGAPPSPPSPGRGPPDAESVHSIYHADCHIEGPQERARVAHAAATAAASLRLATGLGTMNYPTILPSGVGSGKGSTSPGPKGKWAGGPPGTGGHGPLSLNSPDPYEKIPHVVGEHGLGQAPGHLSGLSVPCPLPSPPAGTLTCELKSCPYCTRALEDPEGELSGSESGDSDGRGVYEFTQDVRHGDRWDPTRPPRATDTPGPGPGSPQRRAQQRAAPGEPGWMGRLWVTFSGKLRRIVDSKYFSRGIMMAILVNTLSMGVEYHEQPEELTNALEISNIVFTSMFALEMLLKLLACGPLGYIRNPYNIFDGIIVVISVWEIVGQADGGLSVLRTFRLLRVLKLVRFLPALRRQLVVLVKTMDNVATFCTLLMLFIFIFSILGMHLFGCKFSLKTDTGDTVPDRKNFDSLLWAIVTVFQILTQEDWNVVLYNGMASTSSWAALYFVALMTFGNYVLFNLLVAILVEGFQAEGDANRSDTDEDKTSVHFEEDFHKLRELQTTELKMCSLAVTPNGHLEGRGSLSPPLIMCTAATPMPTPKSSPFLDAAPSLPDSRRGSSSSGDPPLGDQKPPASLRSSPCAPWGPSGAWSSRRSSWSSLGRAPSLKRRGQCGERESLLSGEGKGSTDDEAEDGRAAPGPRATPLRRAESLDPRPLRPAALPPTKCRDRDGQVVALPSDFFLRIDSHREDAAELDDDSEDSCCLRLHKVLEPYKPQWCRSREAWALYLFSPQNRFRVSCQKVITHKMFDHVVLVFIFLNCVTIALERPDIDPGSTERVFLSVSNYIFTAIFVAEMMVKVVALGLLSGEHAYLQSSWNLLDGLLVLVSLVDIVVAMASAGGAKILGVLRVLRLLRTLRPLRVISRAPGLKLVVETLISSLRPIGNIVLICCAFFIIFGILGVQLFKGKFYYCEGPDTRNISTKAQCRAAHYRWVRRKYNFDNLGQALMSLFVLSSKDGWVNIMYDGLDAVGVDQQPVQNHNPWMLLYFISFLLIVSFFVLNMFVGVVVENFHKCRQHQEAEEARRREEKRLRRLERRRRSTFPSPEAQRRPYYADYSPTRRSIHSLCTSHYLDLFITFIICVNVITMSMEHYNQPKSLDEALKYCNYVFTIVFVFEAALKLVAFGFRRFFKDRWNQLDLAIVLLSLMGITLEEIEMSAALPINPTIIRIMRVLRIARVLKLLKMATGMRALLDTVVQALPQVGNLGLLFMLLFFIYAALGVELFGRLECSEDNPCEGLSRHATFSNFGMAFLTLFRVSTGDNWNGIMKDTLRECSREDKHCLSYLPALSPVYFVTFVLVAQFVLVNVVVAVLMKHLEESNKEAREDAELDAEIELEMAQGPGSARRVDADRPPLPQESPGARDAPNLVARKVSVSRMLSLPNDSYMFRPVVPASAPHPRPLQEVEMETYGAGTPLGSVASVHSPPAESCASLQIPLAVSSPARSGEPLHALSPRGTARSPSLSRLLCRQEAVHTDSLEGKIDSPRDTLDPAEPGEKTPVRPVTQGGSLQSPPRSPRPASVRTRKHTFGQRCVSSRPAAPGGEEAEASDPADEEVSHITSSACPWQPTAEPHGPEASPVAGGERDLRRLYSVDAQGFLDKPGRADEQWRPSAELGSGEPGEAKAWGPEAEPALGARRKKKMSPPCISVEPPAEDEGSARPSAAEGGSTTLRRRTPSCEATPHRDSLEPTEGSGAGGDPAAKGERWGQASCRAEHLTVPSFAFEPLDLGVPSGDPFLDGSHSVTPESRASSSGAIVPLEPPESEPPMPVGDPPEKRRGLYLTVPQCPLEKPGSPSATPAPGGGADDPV

With COc1ccc(C(O)(C2CCCCC2)C(CN2CCOCC2)c2ccccc2)cc1 (stereo not given) the AC50 [1] was 11.1 µM (active), the AC50 [2] was 7.26 µM (active) and the AC50 [3] was 5.2 µM (active). The AC50 [4] was 1.09 µM (active).

In the case of CC1(C)Cc2c(sc(NC(=S)NC(=O)c3ccccc3)c2C(=O)O)CO1, the IC50 [5] is reported as 21.1 µM (inactive) and the IC50 [6] is reported as 13.1 µM (active).

With COc1cccc(C(=O)c2c(-c3ccccc3)ncc3cc(OC)c(OC)cc23)c1 the IC50 [7] was > 69.4 µM (inactive) and the IC50 [8] was > 69.4 µM (inactive).

With Cc1cc(N2CCN(c3nc(-c4ccccc4)cs3)CC2)c2ccccc2n1 the IC50 [9] was 9.27 µM (active).

For CC(C)COC(=O)c1ccc(N2C(=O)c3ccccc3C2=O)cc1, the IC50 [5] was 16.2 µM (active), the EC50 [10] was > 104 µM (inactive) and the IC50 [6] was 66.5 µM (inactive).

In the case of CC(C)N(C)S(=O)(=O)c1ccc(NC(=O)CSC(=S)N2CCCC2)cc1, the AC50 [11] is reported as > 100 µM (inactive).

For CCn1cc(C(=O)O)c(=O)c2cc(F)c(N3CCN(C(=S)Nc4ccc(OC)cc4)CC3)cc21, the IC50 [9] was 73.8 µM (inactive).

In the case of NC(=O)c1ccc(N2CCN(S(=O)(=O)c3cccs3)CC2)c([N+](=O)[O-])c1, the EC50 [12] is reported as > 29.9 µM (inactive), the AC50 [13] is reported as 6.21 µM (active) and the IC50 [14] is reported as 1.09 µM (active). For the same compound, the AC50 [15] was 305 nM (active), the AC50 [16] was 2.54 µM (active) and the AC50 [17] was 3.67 µM (active).

With CC(C)Oc1ccc(C(CC(=O)NCc2ccco2)c2ccccc2)cc1 (stereo not given) the IC50 [5] was 16.4 µM (active), the IC50 [6] was 11.6 µM (active) and the EC50 [18] was 4.77 µM (active).

In the case of CC(Cc1ccccc1)=NNS(=O)(=O)c1ccc([N+](=O)[O-])cc1, the IC50 [19] is reported as 9.15 µM (active) and the IC50 [20] is reported as 12.7 µM (active).
